Experimental data taken from patent US20070128217A1 (priority 2003, published 2007).

Legend:
[1] = tested on: control sera (pooled serum of ten healthy LUMC hospital workers; commercial negative donor pooled serum from the Dutch bloodbank); type: binding, human; parameters: Binding of Control serum LUMC to linear peptides / Binding of Control serum Blood-bank to linear peptides / Binding of Control serum LUMC to looped peptides / Binding of Control Serum Blood-Bank to Looped peptides / Binding of Control serum LUMC to linear peptides of the protein M of SARS-CoV Urbani / Binding of Control serum Blood-bank to linear peptides of the protein M of SARS-CoV Urbani / Binding of Control serum LUMC to looped peptides of the protein M of SARS-CoV Urbani / Binding of Control Serum Blood-Bank to Looped peptides of the protein M of SARS-CoV Urbani: unit not given here
[2] = tested on: antibodies in sera from SARS patients (sera 1a, 1b, 2, 6, 37, 62, London, SARS-yellow, SARS-green); type: binding, human; parameters: Binding of serum 6 to linear peptides of protein X1 of SARS-CoV Urbani / Binding of serum 37 to linear peptides of protein X1 of SARS-CoV Urbani / Binding of serum 6 to looped/cyclic peptide (PEPSCAN-ELISA) / Binding of serum 37 to looped/cyclic peptide (PEPSCAN-ELISA) / Binding of serum 37 to looped/cyclic peptides of protein X1 of SARS-CoV Urbani / Binding of serum 6 to linear peptides of protein X2 / Binding of serum 37 to linear peptides of protein X2 / Binding of serum 37 to looped/cyclic peptides of protein X2 of SARS-CoV Urbani / Binding of serum 6 to linear peptides of protein M of SARS-CoV Urbani / Binding of serum 37 to linear peptides of protein M of SARS-CoV Urbani / Binding of serum 6 to looped/cyclic peptides of protein M of SARS-CoV Urbani / Binding of serum 37 to looped/cyclic peptides of protein M of SARS-CoV Urbani / Binding of serum 6 to linear peptides of protein X3 of SARS-CoV Urbani / Binding of serum 37 to linear peptides of protein X3 of SARS-CoV Urbani / Binding of serum 37 to looped/cyclic peptides of protein X3 of SARS-CoV Urbani / Binding of serum 6 to linear peptides of protein X4 of SARS-CoV Urbani / Binding of serum 37 to linear peptides of protein X4 of SARS-CoV Urbani / Binding of serum 37 to looped/cyclic peptides of protein X4 of SARS-CoV Urbani / Binding of serum 6 to linear peptides of protein X5 of SARS-CoV Urbani / Binding of serum 37 to linear peptides of protein X5 of SARS-CoV Urbani / Binding of serum 37 to looped/cyclic peptides of protein X5 of SARS-CoV Urbani / Binding of serum 6 to linear peptides of protein N of SARS-CoV Urbani / Binding of serum 37 to linear peptides of protein N of SARS-CoV Urbani / Binding of serum 6 to linear peptide (PEPSCAN-ELISA) / Binding of serum 1a to looped/cyclic peptides of protein N of SARS-CoV Urbani / Binding of serum 1b to looped/cyclic peptides of protein N of SARS-CoV Urbani / Binding of serum 2 to looped/cyclic peptides of protein N of SARS-CoV Urbani / Binding of serum 6 to looped/cyclic peptides of protein N of SARS-CoV Urbani / Binding of serum 37 to looped/cyclic peptides of protein N of SARS-CoV Urbani / Binding of serum 62 to looped/cyclic peptides of protein N of SARS-CoV Urbani / Binding of serum London to looped/cyclic peptides of protein N of SARS-CoV Urbani / Binding of serum SARS-green to looped/cyclic peptides of protein N of SARS-CoV Urbani: unit not given here
[3] = tested on: rabbit serum obtained by immunizing a rabbit with the SARS-CoV strain Frankfurt 1; type: binding; parameters: Binding of a rabbit serum to linear peptides / Binding of a rabbit serum to looped peptides / Rabbit serum linear peptides / Rabbit serum looped peptides / Binding of a rabbit serum to linear peptides of protein N of SARS-CoV Urbani (Rabbit serum linear peptides) / Binding of a rabbit serum to looped/cyclic peptides of protein N of SARS-CoV Urbani (Rabbit serum looped peptides): unit not given here
[4] = tested on: recombinant human anti-SARS-CoV antibody 03-018; type: binding; parameters: Binding of antibody 03-018 to linear peptides of the N protein of SARS-CoV Urbani / Binding of antibody 03-018 to looped/cyclic peptides of the N protein of SARS-CoV Urbani: unit not given here

Row | Sequence | Binding of serum 1a to linear peptides of protein N of SARS-CoV Urbani [2] | Binding of serum 1a to looped/cyclic peptides of protein N of SARS-CoV Urbani [2] | Binding of serum 1b to linear peptides of protein N of SARS-CoV Urbani [2] | Binding of serum 1b to looped/cyclic peptides of protein N of SARS-CoV Urbani [2] | Binding of serum 2 to linear peptides of protein N of SARS-CoV Urbani [2] | Binding of serum 2 to looped/cyclic peptides of protein N of SARS-CoV Urbani [2] | Binding of serum 6 to linear peptides of protein N of SARS-CoV Urbani [2] | Binding of serum 6 to looped/cyclic peptides of protein N of SARS-CoV Urbani [2] | Binding of serum 37 to linear peptides of protein N of SARS-CoV Urbani [2] | Binding of serum 37 to looped/cyclic peptides of protein N of SARS-CoV Urbani [2] | Binding of serum 62 to linear peptides of protein N of SARS-CoV Urbani [2] | Binding of serum 62 to looped/cyclic peptides of protein N of SARS-CoV Urbani [2] | Binding of serum London to linear peptides of protein N of SARS-CoV Urbani [2] | Binding of serum London to looped/cyclic peptides of protein N of SARS-CoV Urbani [2] | Binding of serum SARS-green to linear peptides of protein N of SARS-CoV Urbani [2] | Binding of serum SARS-green to looped/cyclic peptides of protein N of SARS-CoV Urbani [2] | Binding of serum SARS-yellow to linear peptides of protein N of SARS-CoV Urbani [2] | Binding of serum SARS-yellow to looped/cyclic peptides of protein N of SARS-CoV Urbani [2] | Binding of a rabbit serum to linear peptides of protein N of SARS-CoV Urbani (Rabbit serum linear peptides) [3] | Binding of a rabbit serum to looped/cyclic peptides of protein N of SARS-CoV Urbani (Rabbit serum looped peptides) [3] | other results
1 | PINTNSGPDDQIGYY | 0.2 | 0.4 | 0.2 | 0.4 | 0.2 | 0.4 | 0.2 | 0.2 | 0.9 | 0.7 | 0.7 | 0.5 | 0.4 | 0.4 | 0.3 | 0.8 | 0.6 | 0.5 | 0.1 | 0.4 | Binding of Control Serum Blood-Bank to Looped peptides [1]: 0.5; Binding of Control serum Blood-bank to linear peptides [1]: 0.7; Binding of Control serum LUMC to linear peptides [1]: 0.7; Binding of Control serum LUMC to looped peptides [1]: 0.6; Binding of antibody 03-018 to linear peptides of the N protein of SARS-CoV Urbani [4]: 0.1; Binding of antibody 03-018 to looped/cyclic peptides of the N protein of SARS-CoV Urbani [4]: 0.2
2 | NKHIDAYKTFPPTEP | 0.2 | 0.3 | 0.1 | 0.1 | 0.1 | 0.2 | 0.2 | 0.1 | 0.6 | 0.4 | 0.5 | 0.3 | 0.5 | 0.3 | 0.3 | 0.3 | 0.6 | 0.2 | 0.0 | 0.3 | Control Serum Blood-Bank Looped peptides [1]: 0.5; Control serum Blood-bank linear peptides [1]: 0.6; Control serum LUMC linear peptides [1]: 0.5; Control serum LUMC looped peptides [1]: 0.4; Binding of antibody 03-018 to linear peptides of the N protein of SARS-CoV Urbani [4]: 0.1; Binding of antibody 03-018 to looped/cyclic peptides of the N protein of SARS-CoV Urbani [4]: 0.2
